Series [1] is described as follows: Endotoxin content, limulus amoebocyte lysate (LAL) assay. The settings on record: drug substance (Sample E6).
The subject of series [2] is B/Phuket/3073/2013 virus strain. The series can be described thus: HA content by SRID. Details: species or system influenza virus.
For series [3] the test system is unchanged. Details: species or system influenza virus.
The test system of series [4] is NA enzyme. As to the kind of experiment: NA enzymatic activity, MUNANA assay. The class given is biochemical, influenza virus. The settings on record: drug substance (Sample E6).
For series [5], the system named is B/Phuket/3073/2013 virus strain. As to the kind of experiment: Splitting efficiency by ultracentrifugation in sucrose gradient. Details: species or system influenza virus.

The text below walks through data of patent publication EP4670733A1, “METHODS FOR PREPARING VIRAL PROTEINS AND USES THEREOF” (priority 2024, dated 2025).

For C11-15-secondary alcohol ethoxylates, the Endotoxin content in series [1] is given as below 0.5 EU/mL. The “HA content in µg/mL (SRID)” value in series [2] is given as 241.24 µg/mL. In addition, the Residual infectious virus result in series [3] is “No Residual infectious virus”. For the same substance, in series [4], the “NA enzymatic activity: NA activity” value is 228 µmol/mL/h and the “NA enzymatic activity: Specific activity” value worked out at 1915 µmol/mg/h.
Triton X-100 registered an Endotoxin content in series [1] below 0.5 EU/mL. In addition, the “HA content in µg/mL (SRID)” value in series [2] was determined as 269.97 µg/mL. Moreover, the “Splitting efficiency (ultracentrifugation in sucrose gradient)” value in series [5] is “Conform* (Max total protein by OD280 at 40%sucrose for whole virus and lower than 30%sucrose for split virus.)”. In addition, the Residual infectious virus entry in series [3] is recorded as “No Residual infectious virus”. The “NA enzymatic activity: NA activity” value in series [4] is 155 µmol/mL/h.
